Assay results taken from the supplement of paper PMC10307832.

Legend:
Assay in all cases: relative viability (nuclei count vs DMSO), 5 days (fraction); higher = more cells survive
RU-SKI 43 + Tozasertib = compound: CC[C@@H](C)CNCC(=O)N1CCC2=C([C@@H]1COC3=CC=CC(=C3)C)C=CS2 [RU-SKI 43] + Cc1cc(Nc2cc(N3CCN(C)CC3)nc(Sc3ccc(NC(=O)C4CC4)cc3)n2)n[nH]1 [Tozasertib] (partner 0.1 µM)
Procedure, shortened: (§1)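 Each reported value is a median over duplicate plates. It expresses relative viability: treated-well nuclei count divided by vehicle-well nuclei count. Lung cancer cell lines in 1536-well plates were dosed by pin tool a day after seeding, alone with one drug or with a fixed anchor-drug dose plus five library-drug doses (not always all listed) in √10 steps, and nuclei were counted after 5 days.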

Irinotecan + Trametinib = compound: CCc1c2c(nc3ccc(OC(=O)N4CCC(N5CCCCC5)CC4)cc13)-c1cc3c(c(=O)n1C2)COC(=O)[C@]3(O)CC [Irinotecan] + CC(=O)Nc1cccc(-n2c(=O)n(C3CC3)c(=O)c3c(Nc4ccc(I)cc4F)n(C)c(=O)c(C)c32)c1 [Trametinib] (partner 0.02 µM)
Procedure, shortened: as §1

Irinotecan + Pemetrexed = compound: CCc1c2c(nc3ccc(OC(=O)N4CCC(N5CCCCC5)CC4)cc13)-c1cc3c(c(=O)n1C2)COC(=O)[C@]3(O)CC [Irinotecan] + Nc1nc2[nH]cc(CCc3ccc(C(=O)N[C@@H](CCC(=O)O)C(=O)O)cc3)c2c(=O)[nH]1 [Pemetrexed] (partner 0.2 µM)
Procedure, shortened: as §1

MK-8033 + Dasatinib = compound: Cn1cc(-c2cnc3ccc4ccc(CS(=O)(=O)NCc5ccccn5)cc4c(=O)c3c2)cn1 [MK-8033] + Cc1nc(Nc2ncc(C(=O)Nc3c(C)cccc3Cl)s2)cc(N2CCN(CCO)CC2)n1 [Dasatinib] (partner 0.075 µM)
Procedure, shortened: as §1

Cell Line | relative viability (RU-SKI 43 + Tozasertib; first compound 0.1 µM) | relative viability (RU-SKI 43 + Tozasertib; first compound 0.3162 µM) | relative viability (RU-SKI 43 + Tozasertib; first compound 1 µM) | relative viability (RU-SKI 43 + Tozasertib; first compound 3.162 µM) | relative viability (RU-SKI 43 + Tozasertib; first compound 10 µM) | relative viability (Irinotecan + Trametinib; first compound 0.6325 µM) | relative viability (Irinotecan + Trametinib; first compound 2 µM) | relative viability (Irinotecan + Trametinib; first compound 6.325 µM) | relative viability (Irinotecan + Trametinib; first compound 20 µM) | relative viability (Irinotecan + Pemetrexed; first compound 0.6325 µM) | relative viability (Irinotecan + Pemetrexed; first compound 2 µM) | relative viability (Irinotecan + Pemetrexed; first compound 6.325 µM) | relative viability (Irinotecan + Pemetrexed; first compound 20 µM) | relative viability (MK-8033 + Dasatinib; first compound 0.02 µM) | relative viability (MK-8033 + Dasatinib; first compound 0.06325 µM) | relative viability (MK-8033 + Dasatinib; first compound 0.2 µM) | relative viability (MK-8033 + Dasatinib; first compound 0.6325 µM) | relative viability (MK-8033 + Dasatinib; first compound 2 µM)
NCI-H522 | 0.566 | 0.544 | 0.581 | 0.537 | 0.524 | 0.67 | 0.599 | 0.517 | 0.476 | 0.966 | 0.824 | 0.566 | 0.498 | 0.776 | 0.696 | 0.815 | 1.07 | 0.818
NCI-H596 | 0.996 | 0.849 | 0.869 | 0.954 | 0.849 | 0.86 | 0.731 | 0.682 | 0.758 | 0.471 | 0.608 | 0.595 | 0.748 | 0.55 | 0.535 | 0.586 | 0.626 | 0.455
NCI-H647 | 0.262 | 0.261 | 0.227 | 0.231 | 0.262 | 0.447 | 0.414 | 0.151 | 0.0916 | 0.165 | 0.154 | 0.153 | 0.105 | 0.164 | 0.164 | 0.188 | 0.197 | 0.173
NCI-H650 | 0.724 | 0.717 | 0.765 | 0.709 | 0.654 | 0.733 | 0.308 | 0.173 | 0.206 | 0.749 | 0.838 | 0.229 | 0.201 | 0.491 | 0.446 | 0.471 | 0.386 | 0.489
NCI-H661 | 0.345 | 0.349 | 0.345 | 0.335 | 0.365 | 0.464 | 0.524 | 0.535 | 0.209 | 0.886 | 0.653 | 0.41 | 0.232 | 0.886 | 0.818 | 0.783 | 0.766 | 0.858
NCI-H838 | 0.243 | 0.242 | 0.273 | 0.258 | 0.254 | 0.672 | 0.647 | 0.319 | 0.171 | 0.232 | 0.25 | 0.24 | 0.25 | 0.258 | 0.281 | 0.259 | 0.279 | 0.247
NCI-H1355 | 0.516 | 0.617 | 0.618 | 0.562 | 0.447 | – | 0.399 | 0.239 | 0.22 | – | 0.968 | 0.656 | 0.319 | 0.647 | 0.655 | 0.645 | 0.698 | 0.763
NCI-H1395 | 0.866 | 0.694 | 0.774 | 0.789 | 0.692 | – | 0.812 | 0.549 | 0.375 | – | 0.754 | 0.518 | 0.246 | 0.391 | 0.368 | 0.406 | 0.378 | 0.403
NCI-H1437 | 0.362 | 0.34 | 0.443 | 0.379 | 0.38 | 0.477 | 0.524 | 0.239 | 0.157 | 0.319 | 0.315 | 0.312 | 0.265 | 0.493 | 0.419 | 0.402 | 0.361 | 0.419
NCI-H1650 | 0.381 | 0.374 | 0.38 | 0.427 | 0.303 | 0.484 | 0.526 | 0.45 | 0.125 | 0.365 | 0.373 | 0.282 | 0.111 | 0.27 | 0.254 | 0.275 | 0.325 | 0.272
NCI-H1651 | 0.649 | 0.722 | 0.839 | 0.642 | 0.572 | 0.831 | 0.657 | 0.419 | 0.134 | 0.25 | 0.638 | 0.356 | 0.147 | 0.412 | 0.331 | 0.285 | 0.433 | 0.388
NCI-H1666 | 0.495 | 0.596 | 0.571 | 0.525 | 0.435 | 0.769 | 0.569 | 0.638 | 0.432 | 0.762 | 0.766 | 0.676 | 0.63 | 0.907 | 0.769 | 0.73 | 0.872 | 0.827
NCI-H1734 | 0.238 | 0.217 | 0.276 | 0.258 | 0.267 | – | 0.261 | 0.188 | 0.188 | – | 0.385 | 0.222 | 0.141 | 0.441 | 0.469 | 0.429 | 0.411 | 0.395
NCI-H1755 | 0.622 | 0.651 | 0.602 | 0.571 | 0.496 | 0.733 | 0.456 | 0.405 | 0.469 | 0.383 | 0.45 | 0.39 | 0.448 | 0.41 | 0.382 | 0.415 | 0.421 | 0.443
NCI-H1793 | 0.333 | 0.321 | 0.344 | 0.324 | 0.281 | – | 0.515 | 0.351 | 0.262 | – | 0.699 | 0.395 | 0.253 | 0.425 | 0.388 | 0.394 | 0.365 | 0.338
NCI-H1915 | 0.435 | 0.516 | 0.38 | 0.469 | 0.4 | 0.25 | 0.175 | 0.122 | 0.127 | 0.352 | 0.349 | 0.187 | 0.132 | 0.298 | 0.273 | 0.309 | 0.309 | 0.303
